Measurements published in patent publication US9580758B2, “System and method for the detection and treatment of infection by a microbial agent associated with HIV infection” (priority 2013, dated 2017).

Tested on: Rickettsiales-like agent
Format: cell-based

## O=C(N[C@H](CO)[C@H](O)c1ccc([N+](=O)[O-])cc1)C(Cl)Cl [chloramphenicol]
  sensitivity of the 400 bp sequence (grown with the Rickettsiales-like agent) to treatment in vitro: sensitive
